Where two headings read alike, the source gives them in different places.
Key:
[1] = test system: JAK kinases (JAK1 and JAK3); assay: JAK inhibition: IL-4-stimulated CD23 upregulation in human Ramos B-cells, FACS; type: cell-based; details: IL-4 stimulated Ramos B-cells, read-out: IC50, inhibition of JAK kinases in cellular assay
Description: JAK inhibition was tested in human Ramos B-cells activated with IL-4. Twenty to 24 hours post stimulation, the cells are stained for upregulation of CD23 and analyzed by FACS. Stimulation of the B-cells with IL-4 leads to the activation of the JAK/STAT pathway through phosphorylation of the JAK kinase JAK1 and JAK3, which in turn phosphorylate and activate transcription of factor […].
For the assay, human Ramos B-cells (ATCC, Catalog No. CRL-1596) are cultured in RPMI 1640 medium (Cellgro, Catalog No. 10-040-CM) containing 10% fetal bovine serum (JRH, Catalog No. 12106-500M) according to the propagation protocol supplied with the cells, and maintained at a density of approximately 3.5×10^5 cells/ml. The day before the assay, the cells are diluted to 3.5×10^5 cells/ml to insure they are in the logarithmic growth phase. The cells are spun down, and suspended in RPMI 1640 medium containing 5% fetal bovine serum to a density of 3.5×10^4 cells/ml and aliquots dispensed into a 96-well tissue culture plate. Cells are incubated with test compound (dissolved in DMSO) or DMSO (control) for 1 hr at 37° C. and then stimulated with IL-4 (Pepotech, Catalog No. 200-04) for 20-24 hours (final concentration is 50 Units/ml). Cells are then spun down, stained with anti-CD23-PE antibody (BD Pharmigen, Catalog No. 555711) and analyzed by FACS.

[2] = biological target: Syk kinase (Homo sapiens, UniProt P43405); assay: cell-based Syk assay; details: read-out: IC50, inhibition of Syk kinase
[3] = biological target: T1, Axl kinase (Homo sapiens, UniProt P30530); assay: Phospho-Akt in-cell Western assay (Axl antibody cross-linking, Hela cells); type: cell-based; details: phospho-Akt readout, read-out: IC50, inhibition of Axl kinase
T1 construct: endogenous in cells; host or cells: HeLa cells
T1 sequence (P30530 26-894): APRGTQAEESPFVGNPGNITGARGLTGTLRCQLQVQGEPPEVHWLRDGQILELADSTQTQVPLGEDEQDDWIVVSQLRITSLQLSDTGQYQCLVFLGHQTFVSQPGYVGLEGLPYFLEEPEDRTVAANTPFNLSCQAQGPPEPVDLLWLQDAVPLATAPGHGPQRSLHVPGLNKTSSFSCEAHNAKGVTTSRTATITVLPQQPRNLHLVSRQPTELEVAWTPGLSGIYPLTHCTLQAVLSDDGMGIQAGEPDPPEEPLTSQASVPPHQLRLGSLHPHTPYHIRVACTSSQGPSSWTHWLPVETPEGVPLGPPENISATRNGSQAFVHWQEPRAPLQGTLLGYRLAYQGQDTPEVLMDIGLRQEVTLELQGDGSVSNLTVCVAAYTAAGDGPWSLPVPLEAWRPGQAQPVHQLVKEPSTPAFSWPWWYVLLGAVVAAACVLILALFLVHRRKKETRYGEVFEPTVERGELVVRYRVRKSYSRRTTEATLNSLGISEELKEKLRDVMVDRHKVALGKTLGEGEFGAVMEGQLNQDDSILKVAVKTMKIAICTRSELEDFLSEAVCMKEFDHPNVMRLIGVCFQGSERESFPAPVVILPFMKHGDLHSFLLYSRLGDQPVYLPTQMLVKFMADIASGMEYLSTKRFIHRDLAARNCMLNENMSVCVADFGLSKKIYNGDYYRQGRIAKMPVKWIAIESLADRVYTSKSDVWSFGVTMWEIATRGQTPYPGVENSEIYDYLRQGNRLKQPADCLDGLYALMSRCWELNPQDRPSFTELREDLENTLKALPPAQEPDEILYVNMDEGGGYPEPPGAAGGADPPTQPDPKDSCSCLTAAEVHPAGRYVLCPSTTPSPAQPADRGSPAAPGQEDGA
Description: The compounds of the invention were tested in the following assay for their ability to inhibit Axl activity.
Phospho-Akt in-Cell Western Assay
Starvation medium: For Axl stimulation: 0.5% FCS (fetal calf serum) in DMEM, plus Axl/Fc (extracellular domain of AXL fused to immunoglobulin Fc region) (R&D, 154-AL) 500 ng/mL.
Axl antibody cross-linking: • 1st: Mouse anti-Axl (R&D, MAB 154). • 2nd: Biotin-SP-conjugated AffiniPure goat anti-mouse IgG (H+L) (Jackson ImmunoResearch #115-065-003).
Primary antibody: Rabbit anti-human Phospho-Akt antibody (Cell Signaling 9271): 1×250 diluted in blocking buffer.
Secondary antibody: HRP (horse radish peroxidase)-conjugated Goat anti-Rabbit secondary, stock solution: Jackson lmmunoResearch (Goat anti-Rabbit HRP, #111-035-144) 1:1 diluted in glycerol, store at −20° C. The working solution: 1×2000 dilution of stock in blocking buffer.
A 96 well TC (tissue culture treated) plate was coated with 10 μg/mL poly-L-Lysine at 37° C. for 30 min, washed twice with PBS, and air-dried for 5 minutes before cells were added. Hela cells were seeded at 10,000 cells/well and the cells were starved in 100 μL starvation medium containing Axl/Fc for 24 hrs.
The cells were pre-treated with test compounds by adding 100 μL of 2× test compound to the starvation medium on the cells. The cells were incubated at 37° C. for 1 hr before stimulation.
The cells were stimulated by Axl-antibody cross-linking as follows: A 5× 1st/2nd Axl antibody mixture was made (37.5 μg/mL 1st/100 μg/mL 2nd) in starvation medium and nutated at 4° C. with thorough mixing for 1-2 hours for clustering. The resulting mix was warmed to 37° C. 50 μL of 5× Axl 1st/2nd of antibody cluster was added to the cells and the cells were incubated at 37° C. for 5 min.
After 5 minutes stimulation, the plate was flicked to remove medium and the plate was tapped onto paper towels. Formaldehyde (4.0% in PBS, 100 μL) was added to fix the cells and the cells were incubated at ambient temperature for 20 min without shaking.
The cells were washed with a plate washer buffer to remove the formaldehyde solution. The plate was flicked to remove excess wash buffer and tapped onto paper towels. Quenching buffer (100 μL) was added to each well and the cells were incubated at ambient temperature for 20 minutes without shaking.
The cells were washed with a plate washer buffer to remove the quenching buffer. Blocking buffer (100 μL) was added and the cells were incubated at ambient temperature for at least an hour with gentle shaking.
The cells were washed with a plate washer buffer and diluted primary antibody (50 μL) was added to each well (blocking buffer was added to the negative control wells instead). The plates were incubated overnight at 4° C. with gentle shaking.
The wash buffer was removed, diluted secondary antibody (100 μL) was added, and the cells were incubated at ambient temperature for 1 hour with gentle shaking. During the incubation, the chemiluminescent reagent was brought to ambient temperature.
The secondary antibody was removed by washing the cells 1× with wash buffer, 1× with PBS by plate washer. The PBS was removed from the plate and the chemiluminescent reagent (80 μL: 40 μL A and 40 μL B) was added to each well at ambient temperature.
The resulting chemiluminescence was read with a Luminomitor within 10 minutes to minimize changes in signal intensity. After reading the chemiluminescence, the cells were washed 1× with wash buffer and 1× with PBS by plate washer. The plate was tapped onto paper towels to remove excess liquid from wells and air-dried at ambient temperature for 5 minutes.
Crystal Violet working solution (60 μL) was added to each well and the cells were incubated at ambient temperature for 30 min. The crystal violet solution was removed, and the wells were rinsed with PBS, then washed 3× with PBS (200 μL) for 5 minutes each.
5% SDS solution (70 μL) was added to each well and the cells were incubated on a shaker for 30 min at ambient temperature. […]

For `CC(C)Oc1cccc(Nc2nc(NC3C4C=CC(C4)C3C(=O)N(C)C)c3nc[nH]c3n2)c1` (racemic) [Compound 140], the IC50 [1] was < 5 µM and the IC50 [2] was > 10 µM.

`Cc1cccc(Nc2nc(NC3C4C=CC(C4)C3C(=O)N(C)C)c3nc[nH]c3n2)c1` (racemic) [Compound 141] was tested, and the IC50 [1] was < 5 µM and the IC50 [2] was < 10 µM.

In the case of `COc1cccc(Nc2nc(NC3C4C=CC(C4)C3C(=O)N(C)C)c3nc[nH]c3n2)c1` (racemic) [Compound 142], the IC50 [1] is reported as > 10 µM and the IC50 [2] is reported as < 10 µM.

`CSc1cccc(Nc2nc(NC3C4C=CC(C4)C3C(=O)N(C)C)c3nc[nH]c3n2)c1` (racemic) [Compound 143] was tested, and the IC50 [1] was < 5 µM and the IC50 [2] was < 10 µM.

For `CN(C)C(=O)C1C2C=CC(C2)C1Nc1nc(Nc2cccc(S(N)(=O)=O)c2)nc2[nH]cnc12` (racemic) [Compound 144], the IC50 [1] was < 5 µM and the IC50 [2] was < 10 µM.

With `CN(C)C(=O)C1C2C=CC(C2)C1Nc1nc(Nc2ccc(N3CCCCC3)cc2)nc2[nH]cnc12` (racemic) [Compound 145] the IC50 [1] was < 5 µM and the IC50 [2] was < 10 µM.

For `CN(C)C(=O)C1C2C=CC(C2)C1Nc1nc(Nc2ccc(Cc3ccncc3)cc2)nc2[nH]cnc12` (racemic) [Compound 146], the IC50 [1] was < 5 µM and the IC50 [2] was < 10 µM.

For `NC(=O)C1C2CC(C1Nc1nc(Nc3ccc(N4CCOCC4)cc3)nc3[nH]ccc13)C1ON=C(c3ccccc3)C21` (racemic) [Compound 219, Racemic-(5-exo,6-exo)-N4-(4,7-methano-1,2-benzisoxazol-3a,4,5,6,7,7a-hexahydro-3-phenyl-5-aminocarbonyl-6-yl)-N2-[4-(4-morpholinyl)phenyl]-1H-pyrrolo[2,3-d]pyrimidine-2,4-diamine], the IC50 [1] was < 10 µM, the IC50 [3] was > 10 µM and the IC50 [2] was > 10 µM.

For `CONC(=O)Cc1ccc(Nc2nc(NC3C4C=CC(C4)C3C(N)=O)c3cc[nH]c3n2)cc1` (racemic) [Compound 227, Racemic-(2-exo,3-exo)-N4-(3-aminocarbonylbicyclo [2.2.1]hept-5-en-2-yl)-N2-[4-(N-methoxy)-aminocarbonyl-methylphenyl]-1H-pyrrolo[2,3-d]pyrimidine-2,4-diamine], the IC50 [3] was > 10 µM and the IC50 [2] was < 10 µM.

For `CONC(=O)Cc1ccc(Nc2nc(NC3C4C=CC(C4)C3C(N)=O)c3nc[nH]c3n2)cc1` (racemic) [Compound 228, Racemic-(2-exo,3-exo-)-N6-(3-aminocarbonylbicyclo [2.2.1]hept-5-en-2-yl)-N2-[4-(N-methoxy)-aminocarbonyl-inethylphenyl]-1H-purine-2,6-diamine], the IC50 [3] was > 10 µM and the IC50 [2] was > 10 µM.

In the case of `CONC(=O)Cc1cccc(Nc2nc(NC3C4C=CC(C4)C3C(N)=O)c3nc[nH]c3n2)c1` (racemic) [Compound 230, Racemic-(2-exo,3-exo-)-N6-(3-aminocarbonylbicyclo [2.2.1]hept-5-en-2-yl)-N2-[3-(N-methoxy)-aminocarbonyl-methylphenyl]-1H-purine-2,6-diamine], the IC50 [3] is reported as > 10 µM and the IC50 [2] is reported as < 5 µM.

With `COc1cccc(Nc2nc(NC3C4CCC(C4)C3C(=O)NN)c3cc[nH]c3n2)c1` (racemic) [Compound 231, Racemic-(2-exo,3-exo)-N4-(3-hydrazidebicyclo[2.2. 1]hept-2-yl)-N2-(3-methoxyphenyl)-1H-pyrrolo[2,3-d]pyrimidine-2,4-diamine] the IC50 [1] was < 5 µM, the IC50 [3] was < 10 µM and the IC50 [2] was < 5 µM.

`NC(=O)C1C2C=CC(C2)C1Nc1nc(Nc2ccc(OCCN3CCCC3)c(Cl)c2)nc2[nH]cnc12` (racemic) [Compound 235, Racemic-(2-exo,3-exo-)-N6-(3-aminocarbonylbicyclo [2.2.1]hept-5-en-2-yl)-N2-[3-chloro-4-[2-(1-pyrrolidinyl)ethoxy]phenyl]-1H-purine-2,6-diamine] was tested, and the IC50 [2] was < 5 µM.

For `NC(=O)C1C2C=CC(C2)C1Nc1nc(Nc2ccc(OCCN3CCCC3)c(F)c2)nc2[nH]cnc12` (racemic) [Compound 236, Racemic-(2-exo,3-exo-)-N6-(3-aminocarbonylbicyclo [2.2.1]hept-5-en-2-yl)-N2-[3-fluoro-4-[2-(1-pyrrolidinyl)ethoxy]phenyl]-1H-purine-2,6-diamine], the IC50 [2] was < 10 µM.

With `COc1ccc(Nc2nc(NC3C4C=CC(C4)C3C(N)=O)c3scc(C)c3n2)cc1` (racemic) [Compound 237, Racemic-(2-exo,3-exo-)-7-methyl-N4-(3-aminocarbonylbicyclo [2.2.1]hept-5-en-2-yl)-N2-[4-methoxyphenyl]-thieno[3,2-d]pyrimidine-2,4-diamine] the IC50 [1] was < 5 µM, the IC50 [3] was > 10 µM and the IC50 [2] was > 10 µM.

With `Cc1csc2c(NC3C4C=CC(C4)C3C(N)=O)nc(Nc3ccc(S(N)(=O)=O)cc3)nc12` (racemic) [Compound 242, Racemic-(2-exo,3-exo-)-7-methyl-N4-(3-aminocarbonylbicyclo [2.2.1]hept-5-en-2-yl)-N2-(4-aminosulfonyl)phenyl-thieno[3,2-d]pyrimidine-2,4-diamine] the IC50 [1] was < 5 µM and the IC50 [3] was > 10 µM.

With `CNC(=O)COc1cccc(Nc2nc(N[C@H]3[C@@H](C(N)=O)[C@@H]4C=C[C@H]3C4)c3nc[nH]c3n2)c1` [Compound 110] the IC50 ([1]; unit printed MM) was < 10 µM and the IC50 [2] was < 10 µM.
